In general, inhibition refers to the drop in the measured response relative to a control, in per cent. Broadly, the IC50 is the concentration that gives 50% inhibition. The half-life is how long it takes for the measured level to halve. Low values mean fast loss, high ones slow loss.

Experimental findings from ChEMBL document CHEMBL4482307 (2014) are described below.

The subject of data set [1] is HL-60. Kind of data set: Induction of cell cycle arrest in human HL60 cells assessed as accumulation at G0/G1 phase incubated for 24 to 48 hrs by propidium iodide staining based flow cytometric analysis. It is filed as functional. Background: Flow cytometry measures light scatter and fluorescence of single cells or particles in a stream.
Data set [2] deals with HL-60. Kind of data set: Induction of cell cycle arrest in human HL60 cells assessed as accumulation at G0/G1 phase at 5 uM incubated for 24 to 48 hrs by propidium iodide staining based flow cytometric analysis (reference value: 36%). It is filed as functional.
Data set [3] relates to HL-60. As to the kind of experiment: Induction of cell cycle arrest in human HL60 cells assessed as accumulation at G2/M phase at 5 uM incubated for 24 to 48 hrs by propidium iodide staining based flow cytometric analysis (reference value: 14%). Type of data set: functional.
Data set [4] has as its system HL-60. As to the kind of experiment: Induction of cell cycle arrest in human HL60 cells assessed as accumulation at S phase at 5 uM incubated for 24 to 48 hrs by propidium iodide staining based flow cytometric analysis (reference value: 50%). It is filed as functional.
The test system of data set [5] is HL-60. As to the kind of experiment: Induction of cell cycle arrest in human HL60 cells assessed as accumulation at G0/G1 phase at 10 uM incubated for 24 to 48 hrs by propidium iodide staining based flow cytometric analysis (reference value: 36%). Type of data set: functional.
The subject of data set [6] is HL-60. Kind of data set: Induction of cell cycle arrest in human HL60 cells assessed as accumulation at G2/M phase at 10 uM incubated for 24 to 48 hrs by propidium iodide staining based flow cytometric analysis (reference value: 14%). It is filed as functional.
For data set [7], the system named is HL-60. As to the kind of experiment: Induction of cell cycle arrest in human HL60 cells assessed as accumulation at S phase at 10 uM incubated for 24 to 48 hrs by propidium iodide staining based flow cytometric analysis (reference value: 50%). It is filed as functional.
Data set [8] has as its target Myc proto-oncogene protein (Homo sapiens) (UniProt P01106). As to the kind of experiment: Inhibition of Myc in human HL60 cells co-transfected with Myc-responsive E-box elements assessed as reduction c-Myc promoter-mediated luciferase expression at 10 to 50 uM after 6 hrs. It is filed as cell-based.
Data set [9] has as its target T1, c-Myc/Max (Homo sapiens) (UniProt P01106+P61244). Kind of data set: Inhibition of His6-tagged homogeneously purified recombinant Myc bHLH-LZ domain (unknown origin)/His6-tagged Max (151 residues) (unknown origin) interaction assessed as reduction in Myc/Max/DNA ternary complex formation using fluorescently-tagged (FAM) E-Box-containing double-stranded oligonucleotide at 100 uM by EMSA relative to control. Type of data set: protein-complex assay. (In EMSA bound probe runs differently from free probe, usually more slowly.)

Data set [10] has as its system HL-60. As to the kind of experiment: Antiproliferative activity against human HL60 cells assessed as reduction in cell proliferation incubated for 3 to 4 days by MTT assay. It is filed as functional, cell-based. A general note: Tetrazolium dyes change colour on reduction, which living cells bring about.
A further data set concerns Daudi. As to the kind of experiment: Antiproliferative activity against human Daudi cells assessed as reduction in cell proliferation incubated for 3 to 4 days by MTT assay. Type of data set: functional, cell-based.
For data set [11], the target named is T1, c-Myc/Max (Homo sapiens). As to the kind of experiment: Inhibition of Myc/Max protein interaction in human HL60 cells assessed as reduction in Myc/Max heterodimer formation at 1 to 12 uM by co-immunoprecipitation assay. Type of data set: cell-based.
In the next data set the target is c-Myc/Max (Homo sapiens, UniProt P01106). As to the kind of experiment: Inhibition of His6-tagged homogeneously purified recombinant Myc bHLH-LZ domain (unknown origin)/His6-tagged Max (151 residues) (unknown origin) interaction assessed as reduction in Myc/Max/DNA ternary complex formation using fluorescently-tagged (FAM) E-Box-containing double-stranded oligonucleotide by EMSA relative to control. Type of data set: protein-complex assay.

The nature of data set [12]: Half life in plasma (unknown origin). It is filed as ADME, cell-free.

Molecules are shown by their SMILES. Activity calls are given as the source filed them. The rule behind the calls is not given here. A value given as a limit tells only on which side of the number the result lay.

As to `COC(=O)c1ccc(Nc2ccc([N+](=O)[O-])c3nonc23)c(-c2ccc(C)cc2)c1`, the Activity entry with HL-60 [1] was “Dose-dependent effect”; with HL-60 [2], 44%; with HL-60 [3], 12%; with HL-60 [4], 44%; in the data set with HL-60 [5] it was 59.5%; in the data set on HL-60 [6], 17%. For the same compound, the Activity in the data set on HL-60 [7] worked out at 23%. Besides, in [8], the inhibition entry is “Active”.
Consider `O=[N+]([O-])c1ccc(Nc2ccccc2Br)c2nonc12`, for which the inhibition on c-Myc/Max (Homo sapiens) [9] worked out at 39%.
Take `O=C(OCc1ccccc1)c1ccc(Nc2ccc([N+](=O)[O-])c3nonc23)cc1`: the IC50 in the data set with HL-60 [10] turned out to be 7.2 µM; in the data set on Daudi it was 3.5 µM.
Take `O=C(O)c1cc([N+](=O)[O-])ccc1Nc1ccccc1-c1ccccc1`: at c-Myc/Max (Homo sapiens) [9], the inhibition worked out at 49%.
On to `O=C(OCC(F)(F)F)c1ccc(Nc2ccc([N+](=O)[O-])c3nonc23)cc1`, for which the IC50 in the data set with HL-60 [10] was determined as 8.5 µM; in the data set with Daudi it was 1.9 µM. On c-Myc/Max (Homo sapiens) [11], the inhibition entry was “Active”.
For the compound `O=[N+]([O-])c1ccc(Nc2cccc(-c3ccccc3)c2)c2nonc12`, the inhibition on c-Myc/Max (Homo sapiens) [9] turned out to be 20%.
As for `COC(=O)c1ccc(Nc2ccc([N+](=O)[O-])c3nonc23)cc1`, the IC50 is 20 µM in the data set on HL-60 [10] and 7.8 µM with Daudi.
As for `O=C(Oc1ccccc1)c1ccc(Nc2ccc([N+](=O)[O-])c3nonc23)cc1`, the IC50 with Daudi is 2.5 to 3.1 µM; on c-Myc/Max it was 39.7 µM. Besides, the inhibition entry at c-Myc/Max (Homo sapiens) [11] is “Active”.
Turning to `CC(C)OC(=O)c1ccc(Nc2ccc([N+](=O)[O-])c3nonc23)cc1`, the IC50 in the data set with HL-60 [10] is 9.3 µM; with Daudi, 3.1 µM.
For `CCOC(=O)c1ccc(Nc2ccc([N+](=O)[O-])c3nonc23)cc1` the same measures were above 25 µM and 7.4 µM.
As to `O=C(O)c1ccc(Nc2ccc([N+](=O)[O-])c3nonc23)cc1`, at c-Myc/Max (Homo sapiens) [9], the inhibition is 93 to 94%.
In the case of `CC(=O)OCOC(=O)c1ccc(Nc2ccc([N+](=O)[O-])c3nonc23)cc1`, the half-maximal inhibitory concentration (IC50) was 31.9 µM in the data set on HL-60 [10] and 30.7 µM with Daudi.
In the case of `O=[N+]([O-])c1ccc(Nc2ccccc2-c2ccccc2)c2nonc12`, on c-Myc/Max (Homo sapiens) [9], the inhibition fell in the range of 38 to 39%. The compound also came in with a half-life in data set [12] of 37 min.
